One test deals with CDK2/Cyclin E1 (Homo sapiens, UniProt P24941). Description: CDK2/Cyclin E1 Biochemical Assay (TR-FRET), 1 mM ATP. The conditions noted are these: 0.15 μM Rb (Ser780)-biotin substrate, pH7.0, 60 min preincubation, 90 min reaction, room temperature. The method, then: (§1) CDK2/Cyclin E1 and CDK1/Cyclin B1 Biochemical Assays
(§2) Compounds disclosed herein were tested for inhibition of CDK2/Cyclin E1 or CDK1/Cyclin B1 kinase in an assay based on the time-resolved fluorescence-resonance energy transfer (TR-FRET) methodology. The assay was carried out in 384-well low volume black plates in a reaction mixture containing CDK2/Cyclin E1 or CDK1/Cyclin B1, 1 mM ATP for CDK2/Cyclin E1 and CDK1/Cyclin B1, 0.15 μM Rb (Ser780)-biotin substrate and 0-10 μM compound in buffer containing 50 mM HEPES pH7.0, 0.02% NaN3, 0.01% BSA, 0.1 mM Orthovanadate, 50 mM MgCl2, 1 mM DTT and 0.005% Tween-20. The kinase was incubated with compound for 60 minutes at room temperature and the reaction was initiated by the addition of ATP and Rb (Ser780)-biotin substrate. After reaction at room temperature for 90 minutes, an equal volume of stop/detection solution was added according to the manufacture's instruction (Cisbio Bioassays). The stop/detection solution contained Streptavidin-XL665 and Anti-pRb (Ser780) mAb-Eu Cryptate in Detection buffer (Cisbio Bioassays). Plates were incubated at room temperature for 60 minutes, and the TR-FRET signals (ex337 nm, em665 nm/620 nm) were recorded on a PHERAstar FSX plate reader (BMG Labtech). The inhibition percentage of CDK2/Cyclin E1 or CDK1/Cyclin B1 kinase activity in presence of increasing concentrations of compounds was calculated based on the ratio of fluorescence at 665 nm to that at 620 nm. The IC50 for each compound was derived from fitting the data to the four-parameter logistic equation by Dotmatics.
Background: TR-FRET usually uses a lanthanide donor and a delayed reading to cut background.

The next test has as its target CDK1/Cyclin B1 (Homo sapiens, UniProt P06493). Briefly: CDK1/Cyclin B1 Biochemical Assay (TR-FRET), 1 mM ATP. To be noted: 0.15 μM Rb (Ser780)-biotin substrate, pH7.0, 60 min preincubation, 90 min reaction, room temperature. How it is done:
as §1, §2

Sequence of CDK1/Cyclin B1 (P06493 whole entry): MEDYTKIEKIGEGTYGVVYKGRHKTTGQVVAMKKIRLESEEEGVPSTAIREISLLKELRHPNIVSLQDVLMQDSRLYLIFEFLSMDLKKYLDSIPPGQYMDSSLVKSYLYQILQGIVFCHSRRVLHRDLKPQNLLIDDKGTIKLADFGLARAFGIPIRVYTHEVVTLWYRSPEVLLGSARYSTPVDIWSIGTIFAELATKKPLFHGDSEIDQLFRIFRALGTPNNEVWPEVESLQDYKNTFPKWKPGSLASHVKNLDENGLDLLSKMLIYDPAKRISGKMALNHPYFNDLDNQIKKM
Sequence of CDK1/Cyclin B1 (P14635 whole entry partner): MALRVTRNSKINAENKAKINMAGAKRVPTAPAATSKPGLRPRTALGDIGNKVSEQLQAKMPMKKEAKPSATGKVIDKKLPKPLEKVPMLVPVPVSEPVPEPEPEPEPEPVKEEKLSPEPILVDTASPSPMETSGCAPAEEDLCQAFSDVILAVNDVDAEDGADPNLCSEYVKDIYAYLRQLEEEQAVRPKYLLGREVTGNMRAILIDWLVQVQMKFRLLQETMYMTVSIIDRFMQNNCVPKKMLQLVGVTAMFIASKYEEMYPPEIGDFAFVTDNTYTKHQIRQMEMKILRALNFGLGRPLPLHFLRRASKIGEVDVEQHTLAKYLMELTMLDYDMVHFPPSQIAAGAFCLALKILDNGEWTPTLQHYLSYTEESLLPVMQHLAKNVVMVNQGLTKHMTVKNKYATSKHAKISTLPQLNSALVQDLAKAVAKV

As a reminder, the IC50 is the concentration that inhibits the measured activity by half. Read a low IC50 as higher potency. In the case of `CN(C(=O)O[C@H]1CC[C@@H](c2cc(Nc3ccc4c(c3F)CS(=O)(=O)N4)n[nH]2)C1)C1CCOC1` (relative stereo) [Example 441, cis-3-(3-((4-fluoro-2,2-dioxido-1,3-dihydrobenzo[c]isothiazol-5-yl)amino)-1H-pyrazol-5-yl)cyclopentyl methyl(tetrahydrofuran-3-yl)carbamate], the values for the IC50 on CDK2/Cyclin E1 and against CDK1/Cyclin B1 were 47 nM and 5060 nM, respectively.

With `O=C(N[C@@H]1C[C@H]1O)O[C@H]1CC[C@@H](c2cc(Nc3ccc4c(c3F)CNS4(=O)=O)n[nH]2)C1` (relative stereo) [Example 442, cis-3-(3-((4-fluoro-1,1-dioxido-2,3-dihydrobenzo[d]isothiazol-5-yl)amino)-1H-pyrazol-5-yl)cyclopentyl((1R,2R)-2-hydroxycyclopropyl)carbamate], the results for the IC50 at CDK2/Cyclin E1 and against CDK1/Cyclin B1 were 55 nM and 2990 nM, respectively.

Consider `CC(C)(CO)NC(=O)O[C@H]1CC[C@@H](c2cc(Nc3ccc4c(c3F)CS(=O)(=O)N4)n[nH]2)C1` (relative stereo) [Example 443, cis-3-(3-((4-fluoro-2,2-dioxido-1,3-dihydrobenzo[c]isothiazol-5-yl)amino)-1H-pyrazol-5-yl)cyclopentyl(1-hydroxy-2-methylpropan-2-yl)carbamate], for which the IC50 on CDK2/Cyclin E1 amounted to 1.6 nM; against CDK1/Cyclin B1 it was 582 nM.

As for `CC(C)(CO)NC(=O)O[C@H]1CC[C@@H](c2cc(Nc3cc4c(cc3F)S(=O)(=O)NC4)n[nH]2)C1` (relative stereo) [Example 444, cis-3-(3-((6-fluoro-1,1-dioxido-2,3-dihydrobenzo[d]isothiazol-5-yl)amino)-1H-pyrazol-5-yl)cyclopentyl(1-hydroxy-2-methylpropan-2-yl)carbamate], the IC50 against CDK2/Cyclin E1 was 16 nM; against CDK1/Cyclin B1, 7870 nM.

On to `CC1(NC(=O)O[C@H]2CC[C@@H](c3cc(Nc4cc5c(cc4F)S(=O)(=O)NC5)n[nH]3)C2)CCC1` (relative stereo) [Example 445, cis-3-(3-((6-fluoro-1,1-dioxido-2,3-dihydrobenzo[d]isothiazol-5-yl)amino)-1H-pyrazol-5-yl)cyclopentyl(1-methylcyclobutyl)carbamate], for which the IC50 at CDK2/Cyclin E1 was found to be 1.8 nM; at CDK1/Cyclin B1, 1050 nM.

For the molecule `CC1(NC(=O)O[C@H]2CC[C@@H](c3cc(Nc4cc5c(cc4F)S(=O)(=O)NC5)n[nH]3)C2)CCCC1` (relative stereo) [Example 446, cis-3-(3-((6-fluoro-1,1-dioxido-2,3-dihydrobenzo[d]isothiazol-5-yl)amino)-1H-pyrazol-5-yl)cyclopentyl(1-methylcyclopentyl)carbamate], the IC50 at CDK2/Cyclin E1 was determined as 1.7 nM; on CDK1/Cyclin B1, 1400 nM.

In the case of `CC1(C)CCCN1C(=O)O[C@H]1CC[C@@H](c2cc(Nc3cc4c(cc3F)S(=O)(=O)NC4)n[nH]2)C1` (relative stereo) [Example 447, cis-3-(3-((6-fluoro-1,1-dioxido-2,3-dihydrobenzo[d]isothiazol-5-yl)amino)-1H-pyrazol-5-yl)cyclopentyl 2,2-dimethylpyrrolidine-1-carboxylate], the 50% inhibitory concentration (IC50) on CDK2/Cyclin E1 turned out to be 4.8 nM; on CDK1/Cyclin B1, 1280 nM.

In the case of `O=C(NC12CC(C1)C2)O[C@H]1CC[C@@H](c2cc(Nc3ccc4c(c3F)CS(=O)(=O)N4)n[nH]2)C1` (relative stereo) [Example 448, cis-3-(3-((4-fluoro-2,2-dioxido-1,3-dihydrobenzo[c]isothiazol-5-yl)amino)-1H-pyrazol-5-yl)cyclopentyl bicyclo[1.1.1]pentan-1-ylcarbamate], the IC50 at CDK2/Cyclin E1 amounted to 1.1 nM; against CDK1/Cyclin B1 it was 65 nM.

In the case of `CC1(C)CCN1C(=O)O[C@H]1CC[C@@H](c2cc(Nc3cc4c(cc3F)S(=O)(=O)NC4)n[nH]2)C1` (relative stereo) [Example 449, cis-3-(3-((6-fluoro-1,1-dioxido-2,3-dihydrobenzo[d]isothiazol-5-yl)amino)-1H-pyrazol-5-yl)cyclopentyl 2,2-dimethylazetidine-1-carboxylate], the IC50 against CDK2/Cyclin E1 amounted to 4.1 nM; at CDK1/Cyclin B1 it was 1190 nM.

As to `CC1(NC(=O)O[C@H]2CC[C@@H](c3cc(Nc4cc5c(cc4F)S(=O)(=O)NC5)n[nH]3)C2)CCOC1` (relative stereo) [Example 450, cis-3-(3-((6-fluoro-1,1-dioxido-2,3-dihydrobenzo[d]isothiazol-5-yl)amino)-1H-pyrazol-5-yl)cyclopentyl(3-methyltetrahydrofuran-3-yl)carbamate], the IC50 at CDK2/Cyclin E1 was 7.6 nM; on CDK1/Cyclin B1, 6180 nM.

With `CC1(NC(=O)O[C@H]2CC[C@@H](c3cc(Nc4cc5c(cc4F)S(=O)(=O)NC5)n[nH]3)C2)COC1` (relative stereo) [Example 451, cis-3-(3-((6-fluoro-1,1-dioxido-2,3-dihydrobenzo[d]isothiazol-5-yl)amino)-1H-pyrazol-5-yl)cyclopentyl(3-methyloxetan-3-yl)carbamate], the values for the IC50 against CDK2/Cyclin E1 and against CDK1/Cyclin B1 were 9.9 nM and 7050 nM, respectively.

As to `CN1c2ccc(Nc3cc([C@@H]4CC[C@H](OC(=O)NC56CC(C5)C6)C4)[nH]n3)c(F)c2CS1(=O)=O` (relative stereo) [Example 452, cis-3-(3-((4-fluoro-1-methyl-2,2-dioxido-1,3-dihydrobenzo[c]isothiazol-5-yl)amino)-1H-pyrazol-5-yl)cyclopentyl bicyclo[1.1.1]pentan-1-ylcarbamate], the IC50 against CDK2/Cyclin E1 worked out at 0.5 nM; against CDK1/Cyclin B1, 487 nM.

Consider `CN1c2ccc(Nc3cc([C@@H]4CC[C@H](OC(=O)NC(C)(C)C)C4)[nH]n3)c(F)c2CS1(=O)=O` (relative stereo) [Example 453, cis-3-(3-((4-fluoro-1-methyl-2,2-dioxido-1,3-dihydrobenzo[c]isothiazol-5-yl)amino)-1H-pyrazol-5-yl)cyclopentyl tert-butylcarbamate], for which the IC50 against CDK2/Cyclin E1 came out at 0.9 nM; against CDK1/Cyclin B1, 446 nM.

`[2H]C([2H])([2H])N1c2ccc(Nc3cc([C@@H]4CC[C@H](OC(=O)NC(C)(C)C)C4)[nH]n3)cc2CS1(=O)=O` (relative stereo) [Example 454, cis-3-(3-((1-(methyl-d3)-2,2-dioxido-1,3-dihydrobenzo[c]isothiazol-5-yl)amino)-1H-pyrazol-5-yl)cyclopentyl tert-butylcarbamate]: the IC50 was determined as 0.5 nM against CDK2/Cyclin E1 and 114 nM on CDK1/Cyclin B1.

For the molecule `[2H]C([2H])([2H])N1c2ccc(Nc3cc([C@@H]4CC[C@H](OC(=O)NC56CC(C5)C6)C4)[nH]n3)cc2CS1(=O)=O` (relative stereo) [Example 455, cis-3-(3-((1-(methyl-d3)-2,2-dioxido-1,3-dihydrobenzo[c]isothiazol-5-yl)amino)-1H-pyrazol-5-yl)cyclopentyl bicyclo[1.1.1]pentan-1-ylcarbamate], the IC50 against CDK2/Cyclin E1 is 0.9 nM; on CDK1/Cyclin B1, 97 nM.

For the molecule `O=C(NC12CC(O)(C1)C2)O[C@H]1CC[C@@H](c2cc(Nc3cc4c(cc3F)S(=O)(=O)NC4)n[nH]2)C1` (relative stereo) [Example 456, cis-3-(3-((6-fluoro-1,1-dioxido-2,3-dihydrobenzo[d]isothiazol-5-yl)amino)-1H-pyrazol-5-yl)cyclopentyl(3-hydroxybicyclo[1.1.1]pentan-1-yl)carbamate], the IC50 on CDK2/Cyclin E1 is 0.5 nM; against CDK1/Cyclin B1, 550 nM.

Regarding `O=C(NC12CCC(O)(CC1)CC2)O[C@H]1CC[C@@H](c2cc(Nc3cc4c(cc3F)S(=O)(=O)NC4)n[nH]2)C1` (relative stereo) [Example 457, cis-3-(3-((6-fluoro-1,1-dioxido-2,3-dihydrobenzo[d]isothiazol-5-yl)amino)-1H-pyrazol-5-yl)cyclopentyl(4-hydroxybicyclo[2.2.2]octan-1-yl)carbamate], the IC50 was determined as 1.8 nM against CDK2/Cyclin E1 and 1110 nM on CDK1/Cyclin B1.

In the case of `CC(C)NC(=O)O[C@H]1CC[C@@H](c2cc(Nc3ccc4c(c3F)N(C)S(=O)(=O)N4C)n[nH]2)C1` (relative stereo) [Example 458, cis-3-(3-((4-fluoro-1,3-dimethyl-2,2-dioxido-1,3-dihydrobenzo[c][1,2,5]thiadiazol-5-yl)amino)-1H-pyrazol-5-yl)cyclopentyl isopropylcarbamate], the IC50 against CDK2/Cyclin E1 turned out to be 12 nM; at CDK1/Cyclin B1, 3500 nM.

In the case of `O=C(NC1CC1)O[C@H]1CC[C@@H](c2cc(Nc3ccc4c(c3F)CS(=O)(=O)N4)n[nH]2)C1` (relative stereo) [Example 459, cis-3-(3-((4-fluoro-2,2-dioxido-1,3-dihydrobenzo[c]isothiazol-5-yl)amino)-1H-pyrazol-5-yl)cyclopentyl cyclopropylcarbamate], the IC50 worked out at 6 nM on CDK2/Cyclin E1 and 1970 nM on CDK1/Cyclin B1.

Turning to `CCCNC(=O)O[C@H]1CC[C@@H](c2cc(Nc3ccc4c(c3F)CCS(=O)(=O)N4)n[nH]2)C1` (relative stereo) [Example 460, cis-3-(3-((5-fluoro-2,2-dioxido-3,4-dihydro-1H-benzo[c][1,2]thiazin-6-yl)amino)-1H-pyrazol-5-yl)cyclopentyl propylcarbamate], the IC50 at CDK2/Cyclin E1 amounted to 3.1 nM; against CDK1/Cyclin B1 it was 593 nM.

The values are drawn from patent US20260297080A1, “BICYCLIC COMPOUNDS AS CDK INHIBITORS” (BeOne Medicines I GmbH, priority 2022, published 2026).
